Measurements: US11267824B2, “Inhibitors of indoleamine 2,3-dioxygenase and/or tryptophan 2,3-dioxygenase” (IDORSIA PHARMACEUTICALS LTD, priority 2017, dated 2022)

Experiments:
[1] = molecular target: Recombinant full-length human IDO1 (Homo sapiens (Human), UniProt P14902); assay: IDO1 enzymatic assay (IDO inhibitory activity); assay type: biochemical; details: 2 nM enzyme, 5 μM L-tryptophan, pH6.5, 30 min pre-incubation, NFK quantified by LCMS; mean values if measured multiple times; read-out: hIDO activity (IC50 in nM)
Summary of the method: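 N-His-tagged enzyme from E. coli at 2 nM in 37.5 mM phosphate pH6.5 with ascorbate, methylene blue, catalase; compounds 10 μM–0.5 nM, 0.6% DMSO, pre-incubated 30 min RT, then 5 μM L-tryptophan for 30 min RT. NFK quantified by LCMS against d5-tryptophan; IC50 from duplicate four-parameter fit, means where repeated.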

[2] = molecular target: Recombinant human TDO comprising amino acids 19-407 (Homo sapiens (Human), UniProt P48775); assay: TDO2 enzymatic assay (TDO inhibitory activity); assay type: biochemical; details: 15 nM enzyme, 200 μM L-tryptophan, pH7, 30 min pre-incubation, NFK quantified by LCMS; mean values if measured multiple times; read-out: hTDO activity (IC50 in nM)
Summary of the method: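 His-tagged enzyme (15 nM, E. coli-expressed) in pH 7 phosphate buffer with ascorbate, catalase, BSA, Tween 20, 0.6% DMSO; 30 min RT pre-incubation with compound (10 μM–0.5 nM), then 200 μM L-tryptophan for 30 min RT. N′-formylkynurenine quantified by LCMS against deuterated tryptophan; IC50 by four-parameter fit, duplicates.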

Chain of Recombinant human TDO comprising amino acids 19-407 (P48775 19-406 limits assumed): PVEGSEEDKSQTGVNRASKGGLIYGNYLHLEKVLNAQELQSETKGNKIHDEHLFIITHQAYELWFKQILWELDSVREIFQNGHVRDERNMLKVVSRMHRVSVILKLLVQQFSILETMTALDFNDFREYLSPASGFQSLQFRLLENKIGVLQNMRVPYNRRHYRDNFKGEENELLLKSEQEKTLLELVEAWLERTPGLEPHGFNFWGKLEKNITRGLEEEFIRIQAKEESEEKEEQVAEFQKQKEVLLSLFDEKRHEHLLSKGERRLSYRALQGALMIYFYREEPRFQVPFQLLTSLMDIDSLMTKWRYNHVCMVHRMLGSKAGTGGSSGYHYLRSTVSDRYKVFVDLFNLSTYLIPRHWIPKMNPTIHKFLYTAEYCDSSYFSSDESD
Chain of Recombinant full-length human IDO1 (P14902 whole entry): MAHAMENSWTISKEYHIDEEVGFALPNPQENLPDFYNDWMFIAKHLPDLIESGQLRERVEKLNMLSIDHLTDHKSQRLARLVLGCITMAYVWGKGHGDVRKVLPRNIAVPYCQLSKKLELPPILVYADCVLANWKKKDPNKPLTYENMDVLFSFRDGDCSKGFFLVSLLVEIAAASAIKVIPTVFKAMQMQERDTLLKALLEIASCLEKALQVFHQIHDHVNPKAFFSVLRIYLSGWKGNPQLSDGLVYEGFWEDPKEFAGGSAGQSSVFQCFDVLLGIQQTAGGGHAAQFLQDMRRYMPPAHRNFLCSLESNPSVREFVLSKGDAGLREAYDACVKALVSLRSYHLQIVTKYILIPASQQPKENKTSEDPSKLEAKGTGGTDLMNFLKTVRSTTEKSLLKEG

SMILES	IC50 [1]	IC50 [2]
CC1CCCC(C(O)c2c(C3CC3)sc3cncn23)C1 (stereo not shown) [Example 27, (2-Cyclopropyl-imidazo[5,1-b]thiazol-3-yl)-(3-methyl-cyclohexyl)-methanol]	17.2 nM	384 nM
CC1CCCC(CC(O)c2c(C3CC3)sc3cncn23)C1 (stereo not shown) [Example 29, 1-(2-Cyclopropyl-imidazo[5,1-b]thiazol-3-yl)-2-(3-methyl-cyclohexyl)-ethanol]	21.4 nM	509 nM
CC1CCC(C(O)c2c(C3CC3)sc3cncn23)C1 (stereo not shown) [Example 30, (2-Cyclopropyl-imidazo[5,1-b]thiazol-3-yl)-(3-methyl-cyclopentyl)-methanol]	12.1 nM	454 nM
CC1CCCCC1CC(O)c1c(C2CC2)sc2cncn12 (stereo not shown) [Example 31, 1-(2-Cyclopropyl-imidazo[5,1-b]thiazol-3-yl)-2-(2-methyl-cyclohexyl)-ethanol]	45.2 nM	411 nM
CC1(C)CCC(CC(O)c2c(C3CC3)sc3cncn23)C1 (stereo not shown) [Example 34, 1-(2-Cyclopropyl-imidazo[5,1-b]thiazol-3-yl)-2-(3,3-dimethyl-cyclopentyl)-ethanol]	39.4 nM	321 nM
OC(CC1CCC(c2ccccc2)C1)c1c(C2CC2)sc2cncn12 (stereo not shown) [Example 35, 1-(2-Cyclopropyl-imidazo[5,1-b]thiazol-3-yl)-2-(3-phenyl-cyclopentyl)-ethanol]	114 nM	1570 nM
OC(CC1CC2C=CC1C2)c1c(C2CC2)sc2cncn12 (stereo not shown) [Example 38, 2-Bicyclo[2.2.1]hept-5-en-2-yl-1-(2-cyclopropyl-imidazo[5,1-b]thiazol-3-yl)-ethanol]	22.6 nM	191 nM
OC(CC1CC2CCC1O2)c1c(C2CC2)sc2cncn12 (stereo not shown) [Example 41, 1-(2-Cyclopropyl-imidazo[5,1-b]thiazol-3-yl)-2-(7-oxa-bicyclo[2.2.1]hept-2-yl)-ethanol]	93.4 nM	2340 nM
CC1(C)CCC(C(O)c2c(C3CC3)sc3cncn23)C1 (stereo not shown) [Example 47, (2-Cyclopropyl-imidazo[5,1-b]thiazol-3-yl)-(3,3-dimethyl-cyclopentyl)-methanol]	18.8 nM	287 nM
CC1CCCC1C(O)c1c(C2CC2)sc2cncn12 (stereo not shown) [Example 48, (2-Cyclopropyl-imidazo[5,1-b]thiazol-3-yl)-(2-methyl-cyclopentyl)-methanol]	8.4 nM	70.6 nM
CC(CC(O)c1c(C2CC2)sc2cncn12)C1CCCCC1 (stereo not shown) [Example 65, 3-Cyclohexyl-1-(2-cyclopropyl-imidazo[5,1-b]thiazol-3-yl)-butan-1-ol]	124 nM	931 nM
CCC(C1CCCCC1)C(O)c1c(C2CC2)sc2cncn12 (stereo not shown) [Example 66, 2-Cyclohexyl-1-(2-cyclopropyl-imidazo[5,1-b]thiazol-3-yl)-butan-1-ol]	1570 nM	> 10200 nM
CC1(C)CCCC(C(O)c2c(C3CC3)sc3cncn23)C1 (stereo not shown) [Example 69, (2-Cyclopropyl-imidazo[5,1-b]thiazol-3-yl)-(3,3-dimethyl-cyclohexyl)-methanol]	40 nM	255 nM
OC(CC1CCCCC1c1ccccc1)c1c(C2CC2)sc2cncn12 (stereo not shown) [Example 75, 1-(2-Cyclopropyl-imidazo[5,1-b]thiazol-3-yl)-2-(2-phenyl-cyclohexyl)-ethanol]	1040 nM	9460 nM
CC1(C)CCCCC1CC(O)c1c(C2CC2)sc2cncn12 (stereo not shown) [Example 76, 1-(2-Cycclopropyl-imidazo[5,1-b]thiazol-3-yl)-2-(2,2-dimethyl-cyclohexyl)-ethanol]	147 nM	295 nM
OC(c1c(C2CC2)sc2cncn12)C1CCC(Cc2ccccc2)C1 (stereo not shown) [Example 77, (3-Benzyl-cyclopentyl)-(2-cyclopropyl-imidazo[5,1-b]thiazol-3-yl)-methanol]	91.2 nM	3900 nM
CC(C)CC1CCC(C(O)c2c(C3CC3)sc3cncn23)C1 (stereo not shown) [Example 78, (2-Cyclopropyl-imidazo[5,1-b]thiazol-3-yl)-(3-isobutyl-cyclopentyl)-methanol]	72.3 nM	2010 nM
COC1CCCC(C(O)c2c(C3CC3)sc3cncn23)C1 (stereo not shown) [Example 79, (2-Cyclopropyl-imidazo[5,1-b]thiazol-3-yl)-(3-methoxy-cyclohexyl)-methanol]	109 nM	1850 nM
OC(c1c(C2CC2)sc2cncn12)C1CCc2ccccc2C1 (stereo not shown) [Example 80, (2-Cyclopropyl-imidazo[5,1-b]thiazol-3-yl)-(1,2,3,4-tetrahydro-naphthalen-2-yl)-methanol]	34.2 nM	1810 nM
CC(C1CCCCC1)C(O)c1c(C2CC2)sc2cncn12 (stereo not shown) [Example 82, 2-Cyclohexyl-1-(2-cyclopropyl-imidazo[5,1-b]thiazol-3-yl)-propan-1-ol]	87.3 nM	822 nM
OC(c1c(C2CC2)sc2cncn12)C1CCCC1c1ccccc1 (stereo not shown) [Example 83, (2-Cyclopropyl-imidazo[5,1-b]thiazol-3-yl)-(2-phenyl-cyclopentyl)-methanol]	296 nM	5200 nM
CC1(C)CCCC1C(O)c1c(C2CC2)sc2cncn12 (stereo not shown) [Example 84, (2-Cyclopropyl-imidazo[5,1-b]thiazol-3-yl)-(2,2-dimethyl-cyclopentyl)-methanol]	74 nM	133 nM
CC1(c2ccccc2)CCC(C(O)c2c(C3CC3)sc3cncn23)C1 (stereo not shown) [Example 88, (2-Cyclopropyl-imidazo[5,1-b]thiazol-3-yl)-(3-methyl-3-phenyl-cyclopentyl)-methanol]	76.7 nM	1280 nM
OC(CC1CCCC2CCCCC21)c1c(C2CC2)sc2cncn12 (stereo not shown) [Example 89, 1-(2-Cyclopropyl-imidazo[5,1-b]thiazol-3-yl)-2-(decahydro-naphthalen-1-yl)-ethanol]	528 nM	2130 nM
OC(c1c(C2CC2)sc2cncn12)C1CCC2CCCCC2C1 (stereo not shown) [Example 90, (2-Cyclopropyl-imidazo[5,1-b]thiazol-3-yl)-(decahydro-naphthalen-2-yl)-methanol]	133 nM	1080 nM
OC(c1c(C2CC2)sc2cncn12)C1CCCC1Cc1ccccc1 (stereo not shown) [Example 91, (2-Benzyl-cyclopentyl)-(2-cyclopropyl-imidazo[5,1-b]thiazol-3-yl)-methanol]	288 nM	1640 nM

Second part, the molecule after the results:

IC50 [1]	IC50 [2]	SMILES
35.6 nM	658 nM	O[C@@H](CC1CCCCC1)c1c(Cl)sc2cncn12 [Example 16a, (S)-1-(2-Chloro-imidazo[5,1-b]thiazol-3-yl)-2-cyclohexyl-ethanol]
20.5 nM	356 nM	O[C@@H](CC1CCCC1)c1c(C2CC2)sc2cncn12 [Example 24a, (S)-2-Cyclopentyl-1-(2-cyclopropyl-imidazo[5,1-b]thiazol-3-yl)-ethanol]
22.2 nM	358 nM	O[C@@H](CC1CCCCCC1)c1c(C2CC2)sc2cncn12 [Example 28a, (S)-2-Cycloheptyl-1-(2-cyclopropyl-imidazo[5,1-b]thiazol-3-yl)-ethanol]
19.5 nM	262 nM	CC1(C)CCC(C[C@H](O)c2c(C3CC3)sc3cncn23)C1 (stereo partly drawn) [Example 34a, (S)-1-(2-Cyclopropyl-imidazo[5,1-b]thiazol-3-yl)-2-(3,3-dimethyl-cyclopentyl)-ethanol]
5.03 nM	246 nM	CC1(C)CC([C@H](O)c2c(C3CC3)sc3cncn23)C1 [Example 36a, (S)-(2-Cyclopropyl-imidazo[5,1-b]thiazol-3-yl)-(3,3-dimethyl-cyclobutyl)-methanol]
15 nM	328 nM	CC1(C)CC[C@@H]([C@H](O)c2c(C3CC3)sc3cncn23)C1 [Example 47a, (S)-(2-Cyclopropyl-imidazo[5,1-b]thiazol-3-yl)-((R)-3,3-dimethyl-cyclopentyl)-methanol]
5.99 nM	190 nM	CC1(C)CC[C@H]([C@H](O)c2c(C3CC3)sc3cncn23)C1 [Example 47b, (S)-(2-Cyclopropyl-imidazo[5,1-b]thiazol-3-yl)-((S)-3,3-dimethyl-cyclopentyl)-methanol]
4.37 nM	42.5 nM	CC1([C@H](O)c2c(C3CC3)sc3cncn23)CCCC1 [Example 48a, (S)-(2-Cyclopropyl-imidazo[5,1-b]thiazol-3-yl)-(1-methyl-cyclopentyl)-methanol]
20 nM	494 nM	O[C@@H](c1ccccc1)c1c(C2CC2)sc2cncn12 [Example 50a, (S)-(2-Cyclopropyl-imidazo[5,1-b]thiazol-3-yl)-phenyl-methanol]
20.9 nM	341 nM	O[C@H](c1c(C(F)(F)F)sc2cncn12)C1CCCCC1 [Example 63a, (S)-Cyclohexyl-(2-trifluoromethyl-imidazo[5,1-b]thiazol-3-yl)-methanol]
4.63 nM	11.6 nM	C=Cc1sc2cncn2c1[C@@H](O)C1CCCCC1 [Example 68a, (S)-Cyclohexyl-(2-vinyl-imidazo[5,1-b]thiazol-3-yl)-methanol]
6.45 nM	2300 nM	O[C@H](c1c(C2CC2)sc2cncn12)[C@H]1CC[C@H](c2ccccc2)CC1 [Example 73a, (S)-(2-Cyclopropyl-imidazo[5,1-b]thiazol-3-yl)-(trans-4-phenyl-cyclohexyl)-methanol]
